13 compounds from ChEMBL document CHEMBL1139263, “New lycorine-type alkaloid from Lycoris traubii and evaluation of antitrypanosomal and antimalarial activities of lycorine derivatives” (Bioorg Med Chem, 2008) can be followed below.

Values after ≈ are worked out from the molar mass of the structure shown. Where only a bound is given, the exact number is not on record here.

The test system of experiment [1] is Trypanosoma brucei brucei. As to the kind of experiment: Antitrypanosomal activity against Trypanosoma brucei brucei GUTat3.1 after 72 hrs by alamar blue assay. It is filed as functional, organism-based. The following applies: GUTat3.1, 72 h. In general terms: The colour change of resazurin is a common sign of viable cells or microbes.
Experiment [2] can be described thus: Selectivity index ratio IC50 for human MRC5 cells to IC50 for Trypanosoma brucei brucei GUTat3.1. The experiment is classed as functional.
A further experiment relates to MRC5. Put plainly: Cytotoxicity against human MRC5 cells after 7 days by MTT assay. The experiment is classed as cell-based. The settings on record: MRC5, 168 h. On the technique in general: Formazan colour is commonly taken as a measure of viable cells.
Experiment [3] is described as follows: Selectivity index ratio IC50 for human MRC5 cells to IC50 for Plasmodium falciparum K1. The experiment is classed as functional.
Experiment [4] in a line: Selectivity index ratio IC50 for human MRC5 cells to IC50 for Plasmodium falciparum FCR3. The experiment is classed as functional.
Experiment [5] relates to Plasmodium falciparum. As to the kind of experiment: Antimalarial activity against drug-resistant Plasmodium falciparum K1 infected human erythrocytes after 72 hrs. It is filed as functional, organism-based. The following applies: K1, 72 h.
Experiment [6] relates to Plasmodium falciparum. As to the kind of experiment: Antimalarial activity against drug-sensitive Plasmodium falciparum FCR3 infected human erythrocytes after 72 hrs. It is filed as functional, organism-based. The settings on record: FCR3, 72 h.
Experiment [7] has as its system Trypanosoma brucei rhodesiense. As to the kind of experiment: Antitrypanosomal activity against Trypanosoma brucei rhodesiense STIB900 trypomastigotes. It is filed as functional, organism-based.
Experiment [8] relates to Plasmodium falciparum. Put plainly: Antimalarial activity against Plasmodium falciparum D10. The experiment is classed as functional, organism-based.
Experiment [9] has as its system Plasmodium falciparum. Put plainly: Antimalarial activity against Plasmodium falciparum FAC8. It is filed as functional, organism-based.

Usually IC50 stands for the concentration that gives 50% inhibition. As to `NCCCC(N)(C(=O)O)C(F)F` (stereo not drawn) [EFLORNITHINE], the figures for the IC50 (in [1]; with MRC5) were 2.27 µg/mL (≈ 12.5 µM) and more than 100 µg/mL, respectively. Besides, in [2], the “Ratio IC50” value is more than 44.

On to `CC(=O)O[C@H]1[C@H]2c3cc4c(cc3CN3CCC(=C[C@@H]1O)[C@H]23)OCO4`, for which the figures for the “Ratio IC50” value in experiment [3], in experiment [4] and in [2] were 3.6, 4.3 and 0.2, respectively. Besides, the IC50 in the experiment on Plasmodium falciparum [5] was 0.36 µg/mL (≈ 1.09 µM); in experiment [1], 5.22 µg/mL (≈ 15.8 µM); in the experiment with Plasmodium falciparum [6], 0.3 µg/mL (≈ 0.911 µM); with MRC5, 1.29 µg/mL (≈ 3.92 µM).

For the compound `Cc1ccc(C(=O)Nc2ccc(S(=O)(=O)O)c3cc(S(=O)(=O)O)cc(S(=O)(=O)O)c23)cc1NC(=O)c1cccc(NC(=O)Nc2cccc(C(=O)Nc3cc(C(=O)Nc4ccc(S(=O)(=O)O)c5cc(S(=O)(=O)O)cc(S(=O)(=O)O)c45)ccc3C)c2)c1` [SURAMIN], the IC50 in experiment [1] was 1.58 µg/mL (≈ 1.22 µM); with MRC5, more than 100 µg/mL. Also, the “Ratio IC50” value in experiment [2] was more than 63.

Take `C[C@@H]1CC[C@H]2[C@@H](C)C(=O)O[C@@H]3O[C@@]4(C)CC[C@@H]1[C@]32OO4` [ARTEMISININ]: the “Ratio IC50” value in experiment [3] was found to be 7924.5; in [4], 7528.3. Moreover, the concentration for half-maximal inhibition (IC50) with Plasmodium falciparum [5] was 0.0057 µg/mL (≈ 0.0202 µM); with Plasmodium falciparum [6], 0.006 µg/mL (≈ 0.0213 µM).

For the compound `CCC(=O)O[C@H]1[C@H]2c3cc4c(cc3CN3CCC(=C[C@@H]1OC(=O)CC)[C@H]23)OCO4`, the “Ratio IC50” value in experiment [3] was more than 23.8. In addition, the IC50 was 4.2 µg/mL (≈ 10.5 µM) in the experiment with Plasmodium falciparum [5] and more than 23.8 µg/mL with MRC5.

Regarding `CC(=O)O[C@H]1[C@H]2c3cc4c(cc3CN3CCC(=C[C@@H]1OC(C)=O)[C@H]23)OCO4`, the results for the “Ratio IC50” value in experiment [3] and in [2] were 2.4 and less than 1.4, respectively. The IC50 is 7.6 µg/mL (≈ 20.5 µM) in the experiment on Plasmodium falciparum [5]; 1 µg/mL (≈ 2.69 µM) in [7]; 1 µg/mL (≈ 2.69 µM) with Plasmodium falciparum [8]; 1 µg/mL (≈ 2.69 µM) in the experiment on Plasmodium falciparum [9]; more than 12.5 µg/mL in experiment [1]; 18.1 µg/mL (≈ 48.8 µM) in the experiment on MRC5.

With `CCCC(=O)O[C@H]1[C@H]2c3cc4c(cc3CN3CCC(=C[C@@H]1O)[C@H]23)OCO4`, the figures for the “Ratio IC50” value in [3], in [4] and in [2] were 8.8, 11.3 and 2.6, respectively. In addition, the concentration for half-maximal inhibition (IC50) turned out to be 0.41 µg/mL (≈ 1.15 µM) with Plasmodium falciparum [5], 1.38 µg/mL (≈ 3.86 µM) in experiment [1], 0.32 µg/mL (≈ 0.895 µM) with Plasmodium falciparum [6] and 3.6 µg/mL (≈ 10.1 µM) in the experiment on MRC5.

For the compound `CC(=O)O[C@H]1C=C2CCN3Cc4cc5c(cc4[C@H]([C@@H]1O)[C@@H]23)OCO5`, the “Ratio IC50” value is given as 0.7 in experiment [3] and 40.7 in experiment [2]. The IC50 is 8.21 µg/mL (≈ 24.9 µM) in the experiment on Plasmodium falciparum [5], 0.15 µg/mL (≈ 0.455 µM) in experiment [1] and 6.11 µg/mL (≈ 18.6 µM) with MRC5.

On to `CCC(=O)O[C@H]1[C@H]2c3cc4c(cc3CN3CCC(=C[C@@H]1O)[C@H]23)OCO4`, for which the “Ratio IC50” value stood at 13.5 in experiment [3], 16.6 in [4] and 3.7 in [2]. For the same compound, the IC50 in the experiment with Plasmodium falciparum [5] turned out to be 0.37 µg/mL (≈ 1.08 µM); in [1], 1.34 µg/mL (≈ 3.9 µM); in the experiment with Plasmodium falciparum [6], 0.3 µg/mL (≈ 0.874 µM); in the experiment on MRC5, 4.99 µg/mL (≈ 14.5 µM).

On to `CCCC(=O)O[C@H]1[C@H]2c3cc4c(cc3CN3CCC(=C[C@@H]1OC(=O)CCC)[C@H]23)OCO4`, for which the “Ratio IC50” value in [3] came out at 21.7; in experiment [4], 27.5. Further, the 50% inhibitory concentration (IC50) with Plasmodium falciparum [5] was found to be 0.67 µg/mL (≈ 1.57 µM); in the experiment on Plasmodium falciparum [6], 0.53 µg/mL (≈ 1.24 µM).

Consider `N=C(N)c1ccc(OCCCCCOc2ccc(C(=N)N)cc2)cc1` [PENTAMIDINE], for which the IC50 came out at 0.00158 µg/mL (≈ 0.00464 µM) in experiment [1] and 5.71 µg/mL (≈ 16.8 µM) in the experiment on MRC5. Also, the “Ratio IC50” value in [2] came out at 3614.

`C[C@H](O)CC(=O)O[C@H]1[C@H]2c3cc4c(cc3CN3CCC(=C[C@@H]1O)[C@H]23)OCO4`: the “Ratio IC50” value in [3] turned out to be 13.5; in [4], 18; in experiment [2] it was 4.3. The IC50 in the experiment with Plasmodium falciparum [5] was 0.6 µg/mL (≈ 1.61 µM); in experiment [1] it was 1.9 µg/mL (≈ 5.09 µM); in the experiment with Plasmodium falciparum [6], 0.45 µg/mL (≈ 1.21 µM); in the experiment with MRC5 it was 8.11 µg/mL (≈ 21.7 µM).

Regarding `C[C@@H](O)CC(=O)O[C@@H]1[C@H]2c3cc4c(cc3CN3CCC(=C[C@@H]1O)[C@H]23)OCO4`, the “Ratio IC50” value in experiment [3] worked out at 10.2; in experiment [4] it was 13; in [2], 2.6. Moreover, the IC50 in the experiment on Plasmodium falciparum [5] is 0.62 µg/mL (≈ 1.66 µM); in [1] it was 2.45 µg/mL (≈ 6.56 µM); in the experiment on Plasmodium falciparum [6] it was 0.49 µg/mL (≈ 1.31 µM); with MRC5, 6.35 µg/mL (≈ 17 µM).
